According to BindingDB's records for doi:10.1021/jm060742o (Rheinische Friedrich-Wilhelms-Universitat Bonn, 2006):

Assays:
Assay in all cases: Cholinesterase Inhibition Assay
[1] = biological target: Acetylcholinesterase (Homo sapiens, UniProt P22303); conditions: pH 7.3; 25 °C
Experimental: (§1) The cholinesterase assays were performed using colorimetric method reported by Ellman. The absorbance changed at 412 nm and was monitored with spectrophotometer. The reaction rates were compared and the percent inhibition due to the presence of test compounds was calculated. Inhibition curve was obtained for each compound. The compound concentration producing 50% of enzyme inhibition (IC50) was determined.

[2] = biological target: Acetylcholinesterase (Tetronarce californica, UniProt P04058)
Experimental: as §1

[3] = biological target: Acetylcholinesterase (Electrophorus electricus, UniProt O42275)
Experimental: as §1

[4] = biological target: Cholinesterase (Homo sapiens, UniProt P06276)
Experimental: as §1

Sequence of Acetylcholinesterase (Electrophorus electricus, UniProt O42275) (O42275 whole entry): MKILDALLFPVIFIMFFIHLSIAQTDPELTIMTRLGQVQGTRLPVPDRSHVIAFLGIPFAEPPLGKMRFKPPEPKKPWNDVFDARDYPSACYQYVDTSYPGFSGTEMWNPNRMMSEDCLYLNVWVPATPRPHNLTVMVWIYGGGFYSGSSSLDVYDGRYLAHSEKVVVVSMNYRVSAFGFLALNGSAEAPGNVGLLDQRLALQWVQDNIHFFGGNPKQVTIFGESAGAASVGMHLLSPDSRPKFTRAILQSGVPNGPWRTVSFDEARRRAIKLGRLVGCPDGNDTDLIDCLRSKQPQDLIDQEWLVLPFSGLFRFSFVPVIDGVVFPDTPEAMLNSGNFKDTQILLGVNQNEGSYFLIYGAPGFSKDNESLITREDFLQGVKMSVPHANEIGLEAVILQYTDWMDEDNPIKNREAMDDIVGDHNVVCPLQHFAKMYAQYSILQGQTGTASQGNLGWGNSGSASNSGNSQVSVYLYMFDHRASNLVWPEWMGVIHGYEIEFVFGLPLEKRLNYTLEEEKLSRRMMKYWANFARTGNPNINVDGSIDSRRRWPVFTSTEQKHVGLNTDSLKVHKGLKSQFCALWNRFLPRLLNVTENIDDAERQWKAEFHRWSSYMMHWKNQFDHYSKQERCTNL
Sequence of Acetylcholinesterase (Tetronarce californica, UniProt P04058) (P04058 whole entry): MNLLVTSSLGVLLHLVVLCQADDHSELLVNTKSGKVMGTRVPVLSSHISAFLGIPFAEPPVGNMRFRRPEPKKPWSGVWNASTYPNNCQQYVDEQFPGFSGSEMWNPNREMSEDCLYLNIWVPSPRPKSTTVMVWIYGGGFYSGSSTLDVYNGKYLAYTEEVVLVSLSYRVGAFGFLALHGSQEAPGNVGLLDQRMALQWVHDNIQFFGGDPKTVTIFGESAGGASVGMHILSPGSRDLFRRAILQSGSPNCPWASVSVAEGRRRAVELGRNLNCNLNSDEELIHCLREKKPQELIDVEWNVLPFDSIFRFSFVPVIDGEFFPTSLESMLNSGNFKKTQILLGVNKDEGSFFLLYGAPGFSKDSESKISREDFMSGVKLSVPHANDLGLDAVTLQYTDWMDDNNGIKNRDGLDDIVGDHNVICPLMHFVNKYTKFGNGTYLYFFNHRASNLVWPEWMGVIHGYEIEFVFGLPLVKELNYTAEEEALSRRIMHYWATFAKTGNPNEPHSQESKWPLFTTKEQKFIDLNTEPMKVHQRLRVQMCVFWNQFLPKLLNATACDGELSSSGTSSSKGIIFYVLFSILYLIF
Sequence of Acetylcholinesterase (Homo sapiens, UniProt P22303) (P22303 whole entry): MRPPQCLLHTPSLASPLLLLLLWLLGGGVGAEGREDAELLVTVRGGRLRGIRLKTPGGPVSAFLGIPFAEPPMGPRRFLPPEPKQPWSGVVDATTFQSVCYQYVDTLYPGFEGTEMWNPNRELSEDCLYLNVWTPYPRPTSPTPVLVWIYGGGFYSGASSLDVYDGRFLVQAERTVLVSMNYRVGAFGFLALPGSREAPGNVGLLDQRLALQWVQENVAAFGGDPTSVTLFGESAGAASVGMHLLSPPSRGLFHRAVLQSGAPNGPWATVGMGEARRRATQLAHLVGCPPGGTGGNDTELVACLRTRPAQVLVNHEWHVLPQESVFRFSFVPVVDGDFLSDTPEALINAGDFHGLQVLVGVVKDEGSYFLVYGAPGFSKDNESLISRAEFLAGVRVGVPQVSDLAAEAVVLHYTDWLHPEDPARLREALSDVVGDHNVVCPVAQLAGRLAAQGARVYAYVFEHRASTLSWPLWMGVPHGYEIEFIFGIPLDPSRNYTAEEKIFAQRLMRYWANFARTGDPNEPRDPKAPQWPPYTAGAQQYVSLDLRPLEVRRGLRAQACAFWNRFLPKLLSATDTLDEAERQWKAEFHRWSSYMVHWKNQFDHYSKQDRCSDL
Sequence of Cholinesterase (P06276 whole entry): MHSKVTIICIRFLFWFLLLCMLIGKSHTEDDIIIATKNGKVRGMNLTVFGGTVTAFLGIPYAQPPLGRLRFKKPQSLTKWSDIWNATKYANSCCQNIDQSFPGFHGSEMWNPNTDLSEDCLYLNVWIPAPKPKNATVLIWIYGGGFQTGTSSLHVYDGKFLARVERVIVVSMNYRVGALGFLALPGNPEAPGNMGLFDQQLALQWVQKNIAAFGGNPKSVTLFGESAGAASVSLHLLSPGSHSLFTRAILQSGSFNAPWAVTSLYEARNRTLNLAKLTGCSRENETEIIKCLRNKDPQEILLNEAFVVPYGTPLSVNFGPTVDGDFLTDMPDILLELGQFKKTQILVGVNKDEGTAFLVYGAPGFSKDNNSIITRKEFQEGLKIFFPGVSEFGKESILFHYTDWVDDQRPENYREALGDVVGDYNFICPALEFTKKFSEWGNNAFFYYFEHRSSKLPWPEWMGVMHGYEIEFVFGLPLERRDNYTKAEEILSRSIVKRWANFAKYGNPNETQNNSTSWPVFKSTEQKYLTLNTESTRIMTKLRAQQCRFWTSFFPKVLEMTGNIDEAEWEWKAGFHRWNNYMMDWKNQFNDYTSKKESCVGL

SMILES	IC50 [1] [nM]	IC50 [2] [nM]	IC50 [3] [nM]	IC50 [4] [nM]	Ki [3] [nM]
COc1cc(C(=O)NCCCCCCCCC(=O)NNc2c3c(nc4ccccc24)CCCC3)cc(OC)c1OC [3,4,5-Trimethoxy-N-(9-oxo-9-(2-(1,2,3,4-tetrahydroacridin-9-yl)hydrazino)nonyl)-benzamide]	5.08	5.99	2.73	1.38	
COc1cc(C(=O)NCCCCCCCC(=O)NNc2c3c(nc4ccccc24)CCCC3)cc(OC)c1OC [3,4,5-trimethoxy-N-[7-(N'-1,2,3,4-tetrahydroacridin-9-ylhydrazinecarbonyl)heptyl]benzamide]					3.23
